Data as given in doi:10.1101/2025.01.28.635346v1 (bioRxiv, 2025).
Bridge positions count the residues as written; N and C are the ends. Peptide text beside a SMILES is read from it.

Experiments:
integrin αvβ6 = integrin αvβ6 (Homo sapiens, UniProt P06756+P18564); assay: ELISA competition assay, integrin αvβ6 binding to LAP
[1] = test system: αvβ6/8 vs other RGD-integrins; assay: Selectivity and potency gain for αvβ6/8, worked out from integrin IC50 values; assay type: binding, human; conditions: from IC50 values
integrin αvβ8 = integrin αvβ8 (Homo sapiens, UniProt P06756+P26012); assay: ELISA competition assay, integrin αvβ8 binding to LAP
integrin αvβ3 = integrin αvβ3 (Homo sapiens, UniProt P05106+P06756); assay: ELISA competition assay, integrin αvβ3; assay type: binding

IC50 (integrin αvβ6): 84 nM
IC50 (integrin αvβ8): 116 nM
IC50 (integrin αvβ3): 238 nM
SMILES: CC[C@H](C)[C@H](NC(=O)[C@H](CC(C)C)NC(=O)[C@H](CC(=O)O)NC(=O)CNC(=O)[C@H](CCCNC(=N)N)NC(=O)[C@@H](NC(=O)[C@H](Cc1ccccc1)NC(=O)[C@H](Cc1ccc(O)cc1)NC(=O)[C@@H]1CCC(=O)NCC(=O)NCC(=O)N[C@@H](C)C(=O)NCC(=O)N[C@@H](Cc2c[nH]cn2)C(=O)N[C@@H](C(C)C)C(=O)N2CCC[C@H]2C(=O)N1)C(C)C)C(=O)N[C@@H](CO)C(=O)N[C@@H](Cc1ccccc1)C(=O)N[C@@H](Cc1ccc(O)cc1)C(=O)NCC(=O)O [lassotide 14] (GGAGHVPEYFVRGDLISFYG-OH; lactam N-8; C-terminus assumed)
selectivity favoring αvβ6/8 over αvβ3 [1]: 2-3 fold
